In brackets after ≈: the same amount, converted by molar mass. Read-outs that look alike come from different tables or passages of the source.
Key:
[1] = test system: Enterococcus faecalis ATCC 29212; experiment: Broth microdilution MIC; type: cell-based
Method: (§1) Minimal inhibitory concentrations (MICs) were determined by WuXi Apptec, on behalf of Acurx Pharmaceuticals, Inc., for the Gram-positive pathogens: Enterococcus faecium ATCC 700221 (VRE; vancomycin-resistant), Enterococcus faecalis ATCC 29212, Staphylococcus aureus NRS384 (MRSA; methicillin-resistant), Staphylococcus aureus ATCC 29213 (MSSA; methicillin-sensitive), and Streptococcus pneumoniae ATCC 49619 (PRSP; penicillin-resistant). As a control, Gram-negative Escherichia coli ATCC 25922 was included. All strains were obtained from ATCC with the exception of Staphylococcus aureus NRS384, which was obtained from NARSA (Network on Antimicrobial Resistance in Staphylococcus aureus, now part of BEI resources). Bacteria were cultured according to the manuals provided by the suppliers and stored in 25% glycerol (final concentration) at –80 °C.
(§2) Bacterial strains were streaked out onto MHA plates (Mueller-Hinton II Agar; BD-211438) and incubated at 37 °C for 20 h except for S. pneumoniae and Enterococci, which were streaked on blood agar (Huankai-24070). S. pneumoniae was incubated in 5% CO2. Single colonies were suspended in 5 mL sterile saline, the turbidity was adjusted to 0.20 (Siemens MicroScan turbidity metre; equal to ~1.0 × 10^8 colony forming units (CFU)/mL) and then diluted 200x in MHIIB (Mueller-Hinton II […] (BD-211438)) medium. The MHIIB media was supplemented with 5% Lysed Horse Blood (Shanghai YuanMu Biological Technology Co. Ltd. YM-U161) for S. pneumoniae.
(§3) ACX compounds were dissolved in pure DMSO (Sigma 276855) to a concentration of 20 mg/mL. From this, twofold serial dilutions (from […]) in DMSO were transferred to a 96-well source-plate (Axygen-wipp02280) with pure DMSO as a control. 2 µL from the source plate was then transferred into 96-well culture plates (Costar 3788) and inoculated with 198 µL of the bacterial suspension so that each well contained ~5.0 × 10^5 CFU/mL bacteria, 1% DMSO and serially diluted compounds at 0 µg/mL and 0.0625-64 µg/mL in 100 µl medium. For NRS384, which was tested in a separate experiment, 99 µL of bacterial suspension was added to 1 µL of compound. The plates were incubated in ambient atmosphere at 37 °C for 20 h.

[2] = test system: Enterococcus faecium ATCC 700221 (VRE; vancomycin-resistant); experiment: Broth microdilution MIC; type: cell-based; conditions: for MIC: Enterococcus faecium, read-out: Measured MIC; for Measured MIC: Table 2, polC WT, strain ATCC 700221
Method: as §1, §2, §3

[3] = test system: Escherichia coli ATCC 25922; experiment: Broth microdilution MIC; type: cell-based
Method: as §1, §2, §3

[4] = test system: Staphylococcus aureus ATCC 29213 (MSSA; methicillin-sensitive); experiment: Broth microdilution MIC; type: cell-based; conditions: read-out: Measured MIC
Method: as §1, §2, §3

[5] = test system: Streptococcus pneumoniae ATCC 49619 (PRSP; penicillin-resistant); experiment: Broth microdilution MIC; type: cell-based; conditions: read-out: Measured MIC
Method: as §1, §2, §3

[6] = test system: E. faecium strains with polC mutations (A1281T, F1276I, F1276L, F1276S); experiment: Cross-resistance MIC of reduced susceptible E. faecium strains; type: cell-based, Enterococcus faecium; conditions: for MIC: Enterococcus faecium
Method: Strains with reduced susceptibility to ACX compounds were generated by WuXi Apptec on behalf of Acurx Pharmaceuticals, Inc., using E. faecium ATCC 700221 as parental strain.
Agar MICs for the wild-type strain were determined on Blood agar (Huankai). Compounds and linezolid were dissolved in 100% DMSO and vancomycin in ultrapure water. Strains were inoculated onto agar plates, incubated at 37 °C for 20-24 h after which colonies were suspended in sterile 0.9% saline at different bacterial concentrations. 5 μL of bacterial suspensions was individually spotted on agar plates supplemented with compounds at different concentrations, resulting in final concentrations of 10^–1, 10^–2, 10^–3, 10^–4, 10^–5, 10^–6, and 10^–7 per spot. After incubation for 20-24 h, bacterial growth was assessed by visual inspection.
For frequency of resistance (FOR) studies, colonies from the agar plate were suspended into sterile 0.9% saline to get 10^8-10^9 CFU bacterial cells per mL. […] The suspensions were also serially diluted with 0.9% saline and spotted onto agar to determine the actual inoculum. All agar plates were incubated at 37 °C for 48 h. FOR was defined as colony number on each compound-containing plate per CFU number of actual inoculum. Resistant colonies were subcultured on the corresponding compound plates to confirm that colonies were resistant and stable.
Confirmed resistant colonies were used for cross-resistance studies, as described above.
Paired-end short read sequencing data from selected mutants (generated by BGISEQ) as well as the corresponding wild-type parental strain was analysed against the reference genomes for E. faecium strain ATCC 700221 (https://genomes.atcc.org/genomes/f9d13a716ccb4f78) using Geneious R10.2.6 (Biomatters Ltd). Variants were called using the Find Variants/SNPs function with a minimum coverage of 10 and a minimum frequency of 0.8. […] This identified the following mutations in the polC gene: D1103Y in strain Efa4; F1276L in strains Efa030, Efa038, and Efa039; F1276I in strains Efa1 and Efa037; F1276S in strain Efa3; A1281T in strains Efa036, Efa040 and Efa041. Strains Efa036, Efa039, and Efa040 each had only one polymorphism identified.

[7] = test system: Staphylococcus aureus NRS384 (MRSA; methicillin-resistant); experiment: Broth microdilution MIC; type: cell-based; conditions: read-out: Measured MIC
Method: as §1, §2, §3

[8] = ATCC29212, read-out: Measured MIC
[9] = ATCC25922, read-out: Measured MIC
[10] = read-out: Measured MIC, polC A1281T, strain Efa036, selected on 2 mg/L ACX-641
[11] = read-out: Measured MIC, polC A1281T, strain Efa040, selected on 4 mg/L ACX-671
[12] = read-out: Measured MIC, polC F1276I, strain Efa037, selected on 4 mg/L ACX-641
[13] = read-out: Measured MIC, polC F1276L, strain Efa030, selected on 16 mg/L ACX-728
[14] = read-out: Measured MIC, polC F1276S, strain Efa3, selected on 16 mg/L ACX-728

Row | Structure (SMILES) | MIC [1, 8] | MIC [2] | Measured MIC [2] | MIC [3, 9] | MIC [4] | MIC [5] | MIC [6, 10] | MIC [6, 11] | MIC [6, 12] | MIC [6, 13] | MIC [6, 14] | further results
1 | CCCCCCCCCC(=O)N[C@@H](Cc1c[nH]c2ccccc12)C(=O)N[C@H](CC(N)=O)C(=O)N[C@@H](CC(=O)O)C(=O)N[C@@H]1C(=O)NCC(=O)N[C@@H](CCCN)C(=O)N[C@@H](CC(=O)O)C(=O)N[C@H](C)C(=O)N[C@@H](CC(=O)O)C(=O)NCC(=O)N[C@H](CO)C(=O)N[C@@H]([C@H](C)CC(=O)O)C(=O)N[C@@H](CC(=O)c2ccccc2N)C(=O)O[C@@H]1C [DAP, daptomycin] | 8 µg/mL (≈ 4.94 µM) | 4 µg/mL (≈ 2.47 µM) | 4 mg/L | > 64 µg/mL | 1 µg/mL (≈ 0.617 µM) | 0.5 µg/mL (≈ 0.309 µM) | 4 µg/mL | 4 µg/mL | 2 µg/mL | 2 µg/mL | 2 µg/mL | 
2 | CN(C)c1cc(CNCC(C)(C)C)c(O)c2c1C[C@H]1C[C@H]3[C@H](N(C)C)C(O)=C(C(N)=O)C(=O)[C@@]3(O)C(O)=C1C2=O [OMC, omadacycline] |  |  | 0.12 mg/L |  |  |  | 0.12 µg/mL | 0.12 µg/mL | ≤ 0.06 µg/mL | 0.12 µg/mL | ≤ 0.06 µg/mL | MIC ([1]; ATCC29212, E. faecalis ATCC 29212, Table 1, single replicate, read-out: Measured MIC): 0.25 µg/mL (≈ 0.449 µM); MIC ([2]; E. faecium VRE ATCC 700221, Table 1, single replicate): 0.12 µg/mL (≈ 0.216 µM); MIC ([3]; ATCC25922, E. coli ATCC 25922, Table 1, single replicate, read-out: Measured MIC): 1 µg/mL (≈ 1.8 µM); MIC ([4]; S. aureus ATCC 29213, Table 1, single replicate): 0.5 µg/mL (≈ 0.898 µM); MIC ([5]; S. pneumoniae PRSP ATCC 49619, Table 1, single replicate): ≤ 0.06 µg/mL
3 | CN[C@H](CC(C)C)C(=O)N[C@H]1C(=O)N[C@@H](CC(N)=O)C(=O)N[C@H]2C(=O)N[C@H]3C(=O)N[C@H](C(=O)N[C@H](C(=O)O)c4cc(O)cc(O)c4-c4cc3ccc4O)[C@H](O)c3ccc(c(Cl)c3)Oc3cc2cc(c3O[C@@H]2O[C@H](CO)[C@@H](O)[C@H](O)[C@H]2O[C@H]2C[C@](C)(N)[C@H](O)[C@H](C)O2)Oc2ccc(cc2Cl)[C@H]1O [VAN, vancomycin] | 4 µg/mL (≈ 2.76 µM) | > 64 µg/mL | >64 mg/L | > 64 µg/mL | 1 µg/mL (≈ 0.69 µM) | 0.25 µg/mL (≈ 0.173 µM) |  |  |  |  |  | MIC [7]: 1 µg/mL (≈ 0.69 µM); MIC ([6]; read-out: Measured MIC): > 64 µg/mL; Measured MIC ([6]; polC A1281T, strain Efa036, selected on 2 mg/L ACX-641): >64 mg/L; Measured MIC ([6]; polC F1276I, strain Efa037, selected on 4 mg/L ACX-641): >64 mg/L; Measured MIC ([6]; polC F1276L, strain Efa030, selected on 16 mg/L ACX-728): >64 mg/L; Measured MIC ([6]; polC F1276S, strain Efa3, selected on 16 mg/L ACX-728): >64 mg/L
